Earlier results, collected in US10166212B2, “Oral use of zinc and copper gluconates in the treatment of digital dermatitis” (DANTRACE, priority 2015, dated 2019).

Legend:
[1] = administered as pills of zinc oxide; remainder excreted in feces
[2] = tested on: digital dermatitis lesions

## [O]=[Zn] [zinc oxide]
[1]
  zinc taken up by the digestive system: 20%

## O=C(O)c1ccccc1O [salicylic acid]
[2]; by day 34, P=0.01
  healing rate, treatment vs. control group: fivefold better
[2]; by day 34, P=0.05
  overall positive effect (healing and improvement), treatment vs. control: 1.75 fold
[2]; by day 34 post-treatment, 10 g salicylic acid powder in bandage vs chlortetracycline spray control
  healing rate (change to M0): 13.6%
[2]; by days 14 and 34, P<0.08
  proportion of lesions getting smaller, treatment vs. control: 2.5 times
[2]; days 3 and 14
  healing rates between treatment groups: did not differ significantly
